ChEMBL document CHEMBL1201862, “PubChem BioAssay data set” (2004)
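Dose response: 5 concentrations. Exposure: 48 h. Format: 96-well plates. Endpoint: linear interpolation; highest concentration if not reached. At the GI50, growth is halved.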 Calls of active or inactive are those of the source. Rule as the data show it: active = GI50 up to about 1.1 µM and inactive = higher.

What was measured:
Experiment in all cases: DTP human tumour cell line panel, 48 h
HL-60 = system: HL-60
HCT-116 = system: HCT-116
M14 = system: M14
Hs-578T = system: Hs-578T
RPMI-8226 = system: RPMI-8226
PC-3 = system: PC-3
NCI-H522 = system: NCI-H522
CAKI-1 = system: CAKI-1
SK-MEL-28 = system: SK-MEL-28
NCI-H23 = system: NCI-H23
UACC-62 = system: UACC-62
786-0 = system: 786-0
SNB-19 = system: SNB-19
MCF7 = system: MCF7
SF-295 = system: SF-295
Malme-3M = system: Malme-3M
MDA-MB-435 = system: MDA-MB-435
A549 = system: A549
HCC 2998 = system: HCC 2998
SNB-75 = system: SNB-75

Measured: GI50

O=C(O)c1ccc(Oc2nc3ccccc3s2)cc1
inactive: HL-60 > 100 µM | HCT-116 > 100 µM | M14 > 100 µM | Hs-578T 64.4 µM | RPMI-8226 74 µM | PC-3 > 100 µM | NCI-H522 > 100 µM | CAKI-1 > 100 µM | SK-MEL-28 > 100 µM | NCI-H23 > 100 µM | UACC-62 > 100 µM | 786-0 > 100 µM | SNB-19 > 100 µM | MCF7 > 100 µM | SF-295 > 100 µM | Malme-3M > 100 µM | MDA-MB-435 > 100 µM | A549 > 100 µM

Cc1c(/N=C/C=C/c2ccccc2)c(=O)n(-c2ccccc2)n1C
inactive: HL-60 16.1 µM | HCT-116 13.7 µM | M14 16.3 µM | Hs-578T 23.1 µM | RPMI-8226 14.3 µM | PC-3 33 µM | NCI-H522 50.8 µM | CAKI-1 34.7 µM | SK-MEL-28 14.6 µM | NCI-H23 23.4 µM | UACC-62 17.2 µM | SNB-19 30.1 µM | MCF7 21.9 µM | SF-295 14.4 µM | Malme-3M 25.4 µM | MDA-MB-435 34.4 µM | A549 > 100 µM

COC(=O)c1cn(CCCC(=O)O)nn1
inactive: HCT-116 > 100 µM | Hs-578T > 100 µM | PC-3 > 100 µM | CAKI-1 > 100 µM | HCC 2998 > 100 µM | SK-MEL-28 > 100 µM | NCI-H23 > 100 µM | UACC-62 > 100 µM | 786-0 > 100 µM | SNB-19 > 100 µM | MCF7 > 100 µM | SF-295 > 100 µM | Malme-3M > 100 µM | SNB-75 > 100 µM | MDA-MB-435 > 100 µM | A549 > 100 µM

COc1ccc(-c2cc(-c3ccncc3)nc(N)c2-c2ccc(F)cc2)cc1
inactive: HCT-116 11.9 µM | M14 42 µM | Hs-578T > 100 µM | RPMI-8226 > 100 µM | PC-3 67.1 µM | NCI-H522 11.1 µM | CAKI-1 32.3 µM | NCI-H23 76 µM | UACC-62 71.4 µM | 786-0 9.29 µM | SNB-19 41.5 µM | MCF7 24.3 µM | SF-295 80.9 µM | Malme-3M > 100 µM | SNB-75 11.5 µM | MDA-MB-435 21.2 µM | A549 > 100 µM

CCOC(=O)c1[nH]cc(C)c1-c1ccn(-c2ccccc2)c1
inactive: HCT-116 42.7 µM | M14 48.2 µM | Hs-578T 25.9 µM | PC-3 30.6 µM | NCI-H522 20.1 µM | CAKI-1 > 100 µM | HCC 2998 41.9 µM | SK-MEL-28 96.2 µM | NCI-H23 49.5 µM | UACC-62 36.8 µM | 786-0 53.2 µM | MCF7 61 µM | SF-295 56.4 µM | SNB-75 13.3 µM | MDA-MB-435 41.9 µM | A549 59.6 µM

O=C1CC(n2ccnc2)c2c(Cl)sc(Cl)c21 (stereo unspecified)
inactive: HL-60 51.8 µM | HCT-116 14.2 µM | M14 15.3 µM | Hs-578T 30.4 µM | RPMI-8226 2.28 µM | PC-3 15.7 µM | NCI-H522 6.31 µM | CAKI-1 19.5 µM | SK-MEL-28 23.7 µM | NCI-H23 14.9 µM | UACC-62 15.5 µM | 786-0 6.79 µM | SNB-19 20.3 µM | MCF7 4.94 µM | SF-295 27.4 µM | Malme-3M 17.4 µM | SNB-75 20.6 µM | MDA-MB-435 17.1 µM | A549 24.5 µM

C[C@H]1SC(c2ccc(Cl)cc2Cl)N(NC(=O)c2ccncc2)C1=O (stereo partly specified)
inactive: HL-60 28.9 µM | HCT-116 20 µM | M14 21.8 µM | Hs-578T 64.7 µM | RPMI-8226 35.6 µM | PC-3 15.1 µM | NCI-H522 22.6 µM | CAKI-1 > 100 µM | SK-MEL-28 31.3 µM | NCI-H23 33.3 µM | UACC-62 26.2 µM | SNB-19 43.2 µM | MCF7 8.59 µM | SF-295 49.1 µM | Malme-3M 64.1 µM | SNB-75 45.7 µM | MDA-MB-435 23.9 µM

C[N+](C)(CCCCCC[N+](C)(C)CCCN1C(=O)c2cccc3cccc(c23)C1=O)CCCN1C(=O)c2cccc3cccc(c23)C1=O
inactive: HL-60 > 100 µM | HCT-116 72.8 µM | Hs-578T > 100 µM | RPMI-8226 > 100 µM | PC-3 > 100 µM | NCI-H522 > 100 µM | CAKI-1 78 µM | SK-MEL-28 > 100 µM | NCI-H23 > 100 µM | UACC-62 33 µM | SNB-19 > 100 µM | MCF7 > 100 µM | SF-295 41.7 µM | Malme-3M > 100 µM | MDA-MB-435 > 100 µM | A549 > 100 µM
